Measurements published in patent US20250318525A1, “COMPOSITIONS TO CONTROL THE RELEASE RATES OF CHEMICAL PESTICIDES” (priority 2020, published 2025).
≈ marks a conversion by molar mass, not a printed value. Read-outs that look alike come from different tables or passages of the source. Blank lines part the entries; values can stand above or below the molecule they belong to.

How the values were obtained:
[1] = 2,4D release from tablets containing preformed 2,4D complexes (Examples 8, 10, 11); format: physicochemical; settings: 20% 2,4D tablets in silt, 1 L deionized water, 20° C., 60 rpm, FIGS. 16, 18, 19
Description: The resulting solids were filtered and resuspended in deionized water with stirring for 15 min., then filtered again. The solids were dried to constant mass in a food dehydrator 120° F.
The resulting tablets were immersed in 1 L of deionized water at 20° C. and stirred at 60 rpm for the designated time period.

physchem = settings: water
[2] = Terrestrial sand bed with 2,4D salts and modeled rain events (Example 24); format: physicochemical; settings: 7×200 mL flushes of deionized water, FIG. 33
Description: 200 mL of sand was layered in a Buchner funnel with filter paper. 2,4D salts were blended with 5.0 g of sand, and layered atop the 200 mL sand bed and exposed to 7×200 mL flushes of deionized water. 2,4D concentration was measured in the flush water to study how the associated metal impacted how rapidly 2,4D was lost from the surface.
In a terrestrial application, 2,4D lost from the surface would no longer be available to treat the target plant.

[3] = Release from dual active tablets, copper-endothall salt and Mg(triclopyr)2 or Ca(triclopyr)2 (Example 19); format: physicochemical; settings: tablets with Mg(triclopyr)2 or Ca(triclopyr)2, 1 L stirred deionized water, both formulations, FIG. 28
Description: Formulations were prepared with 33 weight percent each of copper-endothall salt, Mg(triclopyr)2 or Ca(triclopyr)2 salt, and silt. Formulations were mixed using a blender and then pressed into 6 mm tablets (average weight of 0.082 g/tablet) using a desktop tablet press.
• A. 0.5 g Endothall (Cu), 0.5 g triclopyr (Ca), 0.5 g silt • B. 0.5 g Endothall (Cu), 0.5 g triclopyr (Mg), 0.5 g silt
(§1) The resulting tablets were immersed in 1 L of stirred deionized water (60 rpm). […] The copper endothall salt portion of the formulation releases rapidly within 24 hours for both formulations.

[4] = Release from dual active tablets, copper-endothall salt and Mg(2,4D)2 or Ca(2,4D)2 (Example 18); format: physicochemical; settings: tablets with Mg(2,4D)2 or Ca(2,4D)2, 1 L stirred deionized water, both formulations, FIG. 27
Description: Formulations were mixed using a blender and then pressed into 6 mm tablets (average weight of 0.082 g/tablet) using a desktop tablet press. Exact Formulations: • A. 0.5 g Endothall (Cu), 0.5 g 2,4D (Ca), 0.5 g silt • B. 0.5 g Endothall (Cu), 0.5 g 2,4D (Mg), 0.5 g silt
as §1

[5] = Benzoic acid release from benzoic acid salt tablets (Example 21); format: physicochemical; settings: 1 L stirred deionized water, room temperature, FIG. 30
Description: Benzoic acid (BA) is a structural analogue to dicamba with its carboxylic acid in the benzyl position. BA salts were prepared by mixing a stoichiometric amount of metal hydroxide with benzoic acid in deionized water for a minimum of 12 hours. The resulting solids were filtered out of solution and dried in a dehydrator for 12 hours at 120° F. These were then blended with silt in a mortar and pestle and pressed on a desktop tablet press into 6 mm tablets (average tablet weight 0.093 g).
• A. 0.1 g BA, 0.4 g silt • B. 0.1 g Mg(BA)2, 0.4 g silt • C. 0.1 g Ca(BA)2, 0.4 g silt • D. 0.1 g Cu(BA)2, 0.4 g silt • E. 0.1 g Na benzoate, 0.4 g silt
These tablets were immersed in 1 L, stirred (60 rpm), room temperature, deionized water with two tablets per jar. […] A trend can be expected, but not predicted. Based on this, a trend could also be expected when dicamba is paired with metal ions.

[6] = as listed in FIG. 36
[7] = TFM release when paired with bases of increasing solubility; format: physicochemical

Compound: O=C(O)COc1ccc(Cl)cc1Cl [2,4D, 2,4-dichlorophenoxyacetic acid, reference compound]
2,4D release rate, comparison [1]: releases significantly faster than the Ca(2,4D)2
solubility (physchem): 740 µg/mL (≈ 3.35 mM)

Compound: O=C([O-])COc1ccc(Cl)cc1Cl.O=C([O-])COc1ccc(Cl)cc1Cl.[Cu+2] [Cu(2,4D)2]
2,4D release rate, comparison [1]: the slowest of all
tolerance of 2,4D salt on sand bed to water flushes [2]: most tolerant to frequent exposure to rain or watering events

Compound: O=C([O-])C1C2CCC(O2)C1C(=O)[O-].[Cu+2] (stereo not drawn) [copper endothall salt]
time for release of endothall portion [3]: ≤ 24 h
time for release of endothall portion [4]: ≤ 24 h

Compound: O=C([O-])c1ccccc1.O=C([O-])c1ccccc1.[Ca+2] [Ca(BA)2]
benzoic acid release rate, comparison [5]: releases significantly faster than BA

Compound: O=C(O)COc1ccc(Cl)cc1Cl [Ca(2,4D)2]
2,4D release rate, comparison ([1]; listed as premade calcium complex): not significantly slower

Compound: O=C([O-])COc1ccc(Cl)cc1Cl.O=C([O-])COc1ccc(Cl)cc1Cl.[Fe+2] [Fe(2,4D)2]
solubility [6]: 1860 µg/mL
2,4D release rate, comparison [1]: releases more slowly than 2,4D

TFM release rate, order by paired base [7]: Mg(OH)2<Ca(OH)2<<<KOH
Compound: O=[N+]([O-])c1ccc(O)cc1C(F)(F)F [TFM, 3-trifluoromethyl-4-nitrophenol]

Compound: O=C([O-])COc1ccc(Cl)cc1Cl.[Na+] [Na(2,4D)]
2,4D release rate, comparison [1]: releases the fastest
